Three compounds from ChEMBL document CHEMBL1133226, “Combinatorial diversification of indinavir: in vivo mixture dosing of an HIV protease inhibitor library” (Bioorg Med Chem Lett, 2000) can be followed below.

As a reminder, the IC50 is the concentration that gives 50% inhibition. Lower therefore signals greater potency.

One assay has as its system MT4. Nature of the assay: Compound was tested in vitro for inhibition of spread of viral infection in MT-4 human T-lymphoid cells infected with the IIIb isolate. To be noted: read-out: CIC95. The format is functional.
Assay [1] concerns the target Human immunodeficiency virus type 1 protease (Human immunodeficiency virus 1, UniProt Q72874). Nature of the assay: In vitro inhibitory concentration to prevent cleavage of a substrate by the protease enzyme.

In the case of `CC(C)(C)NC(=O)[C@@H]1CN(Cc2ccc(Cl)c(Cl)c2)CCN1C[C@@H](O)C[C@@H](Cc1ccccc1)C(=O)N[C@H]1c2ccccc2C[C@H]1O`, the IC95 in the assay with MT4 was determined as 200 nM. Also, in assay [1], inhibition was half-maximal at 1.1 nM (IC50).
`CC(C)(C)NC(=O)[C@@H]1CN(Cc2cccnc2)CCN1C[C@@H](O)C[C@@H](Cc1ccccc1)C(=O)N[C@H]1c2ccccc2C[C@H]1O` [INDINAVIR]: the IC95 in the assay with MT4 stood at 50.5 nM.
In the case of `CC(C)(C)NC(=O)[C@@H]1CN(S(C)(=O)=O)CCN1C[C@@H](O)C[C@@H](Cc1ccccc1)C(=O)N[C@H]1c2ccccc2C[C@H]1O`, the IC95 in the assay on MT4 was determined as 400 nM. In assay [1], the IC50 was found to be 1.6 nM.
